Measurements reported in patent publication US20230103675A1, “ALLERGEN PROTECTION FOR THE SKIN” (BEIERSDORF AG, priority 2020, published 2023).
Each block holds one substance with its values, some of them ahead of it. Where no end group is shown, it is not given here.

Assays:
[1] = test system: Phenion FTS full skin models; experiment: Cytokine release (IL8, IL6) in supernatants of Phenion FTS full skin models, Bio-Plex multiplex immunoassay; type: cell-based, human; conditions: FIGS. 2 to 4 left bar; 0.5 mM peptide without allergen
Description: (§1) The investigations were carried out using Phenion FTS full skin models (Phenion, Henkel). These were maintained for 3 days at 37° C. and 7% CO2 in deep-well plates having a […] pore size in the cell culture inserts. The skin models were maintained in 1.5 ml of air-liquid interface medium without phenol red. The medium was changed daily. The test substances were dissolved in ethanol and incubated at room temperature for 24 h. After culturing for 24 h, 25 μl of the substance solution was dripped onto a sterile filter paper that had previously been laid on the skin model. The barrier peptide (0.5 mM AcRFAACAA) had previously been applied to the model as a solution in 100 mM phosphate buffer (pH 7.5). Alternatively, the barrier peptide was applied in a formulation having a content of 0.25% by weight.
(§2) After culturing for a further 24 h, the models were harvested and one half embedded in OCT mounting medium (VWR Q-Path Chemicals), the other half snap-frozen in liquid nitrogen. The supernatant of each model was collected and stored at −20° C.
The supernatants were then analyzed (FIGS. 2, 3 and 4).
The supernatants of the Phenion FTS models were analyzed using the Bio-Plex Pro Human Cytokine Screening Panel (Bio-Rad) according to the manufacturer's protocol. […] The cytokine concentrations are calculated on the basis of the standard curves from the Bioplex system. […]

[2] = test system: Phenion skin models; experiment: H&E staining of cryosections of Phenion skin models; type: cell-based; conditions: FIG. 5 B; 0.5 mM peptide, no allergen
Description: as §1, §2
In further investigations, frozen sections were thawed and incubated for 10 min in 3.7% paraformaldehyde at RT. After three PBS wash steps and one minute in distilled water, they are stained for 3 min in hematoxylin solution. […]

[3] = Barrier effect against metals
[4] = Direct peptide reaction assay (DPRA) with urushiols, Ellman's reagent, 24 h; conditions: FIG. 9; urushiol structures I-V, 24 h reaction, n=3
Description: The reaction courses shown in FIGS. 8 and 9 were determined colorimetrically through the reaction of the peptide with Ellmann's reagent in a photometer. In this reaction, DTNB ((5,5′-dithiobis-2-nitrobenzoic acid, Ellmann's reagent) is cleaved and attached to the SH residue of the amino acid cysteine of the peptides of the invention (Ac-RFAACAA, RFAACAA).
The SH radical is at the same time the reactive binding site of the peptide with the allergens. The color reaction with DTNB (color change from colorless to yellow) competes with the allergen reaction. This means that the better the allergen reacts with the peptide, the less peptide remains available for the reaction with the detection reagent, i.e. the less the resulting yellow coloration.
The control is the peptide in the buffer system without allergen, i.e. instead of allergen only its solvent (ethanol) is added.
Urushiols of the structure below were used.
The investigated urushiols differ in the saturation in the side chain R.
Urushiols where R═C15 singly (C15:1), doubly (C15:2) or triply (C15:3) unsaturated were investigated.

- skin model IL8/IL6 release with peptide on its own [1]: unchanged
- skin model morphology (H&E) with peptide on its own [2]: unchanged
Substance: Ac-RFAACAA [Ac-RFAACAA, acetylarginine-phenylalanine-alanine-alanine-cysteine-alanine-alanine]

Substance: His His His His His His (HHHHHH; printed: His His His His His His)
- barrier effect against metals and nickel in particular [3]: achieved a barrier effect

Substance: RFAACAA [Arg Phe Ala Ala Cys Ala Ala]
- reactivity and thus protective activity against urushiols [4]: very high reactivity
